Assay results: patent US5057522A, “Anti-hypersensitive N2-tetrazole-β-glucuronide analog” (Merck & Co., Inc., priority 1990, dated 1991)

Target: T1, Angiotensin II (A II) receptor (Oryctolagus cuniculus, UniProt P34976)
T1 construct: membrane preparation derived from rabbit aortae; tissue Pel-Freeze Biologicals; host or cells: rabbit aorta membrane preparation
T1 sequence (P34976 1-359): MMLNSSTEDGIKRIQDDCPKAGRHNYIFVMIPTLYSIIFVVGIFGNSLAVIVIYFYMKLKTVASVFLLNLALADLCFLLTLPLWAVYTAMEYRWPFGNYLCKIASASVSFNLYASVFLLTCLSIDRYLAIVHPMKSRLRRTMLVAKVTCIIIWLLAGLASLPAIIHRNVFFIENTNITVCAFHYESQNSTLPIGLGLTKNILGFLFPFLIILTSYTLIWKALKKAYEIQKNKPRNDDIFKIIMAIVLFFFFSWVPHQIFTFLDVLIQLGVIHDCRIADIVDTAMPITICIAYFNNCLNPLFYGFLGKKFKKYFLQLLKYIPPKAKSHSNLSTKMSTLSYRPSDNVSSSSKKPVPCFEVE
Assay: Receptor binding assay using rabbit aortae membrane preparation (displacement of 125I-Sar1 Ile8-angiotensin II; "IC50" assay)
Description: This assay is also referred to herein as the "IC50 " assay.
RECEPTOR BINDING ASSAY USING RABBIT AORTAE MEMBRANE PREPARATION
Three frozen rabbit aortae (obtained from Pel-Freeze Biologicals) were suspended in 5 mM Tris-0.25M Sucrose, pH 7.4 buffer (50 ml) homogenized, and then centrifuged. The mixture was filtered through a cheesecloth and the supernatant was centrifuged for 30 minutes at 20,000 rpm at 4° C. The pellet thus obtained was resuspended in 30 ml of 50 mM Tris-5 mM MgCl2 buffer containing 0.2% Bovine Serum Albumin and 0.2 mg/ml Bacitration and the suspension was used for 100 assay tubes. Samples tested for screening were done in duplicates. To the membrane preparation (0.25 ml) there was added ^125 I-Sar^1 Ile^8 -angiotensin II [obtained from New England Nuclear] (10 ul; 20,000 cpm) with or without the test sample and the mixture was incubated at 37° C. for 90 minutes. The mixture was then diluted with ice-cold 50 mM Tris-0.9% NaCl, pH 7.4 (4 ml) and filtered through a glass fiber filter (GF/B Whatman 2.4" diameter). The filter was soaked in scintillation cocktail (10 ml) and counted for radioactivity using Packard 2660 Tricarb liquid scintillation counter. […]

- A II antagonist activity by the IC50 assay: exhibits A II antagonist activity
- IC50 (37° C., 90 minutes, read-out: inhibitory concentration (IC50) giving 50% displacement of the total specifically bound 125I-Sar1 Ile8-angiotensin II): < 50 µM
Structure (SMILES): CCc1nc2c(C)cc(C)nc2n1Cc1ccc(-c2ccccc2-c2nnn([C@@H]3O[C@H](C(=O)O)[C@@H](O)[C@H](O)[C@H]3O)n2)cc1 [compound (I)]
